For data set [1], the system named is RAW264.7. The data set can be described thus: Cytotoxicity against LPS-stimulated mouse RAW264.7 cells assessed as reduction in cell viability at 50 umol/L after 24 hrs by MTT assay. Type of data set: cell-based. Particulars: raw264.7, 24 h, 50 µM.
The subject of data set [2] is RAW264.7. The data set can be described thus: Antiinflammatory activity against LPS-stimulated mouse RAW264.7 cells assessed as downregulation of NO levels by ELISA. It counts as functional, cell-based. In general terms: In an ELISA, binding on a coated surface is turned into a signal by an enzyme label.
Data set [3] has as its system RAW264.7. The data set can be described thus: Antiinflammatory activity against LPS-stimulated mouse RAW264.7 cells assessed as downregulation of COX2 levels by ELISA. Type of data set: functional, cell-based.
The subject of data set [4] is RAW264.7. In words: Cytotoxicity against mouse RAW264.7 cells assessed as reduction in cell viability at 50 umol/L after 24 hrs by MTT assay. Type of data set: cell-based. Particulars: raw264.7, 24 h, 50 µM. In general terms: Tetrazolium assays rely on reduction of a dye to a coloured formazan, in cell work by metabolically active cells.
Data set [5] concerns RAW264.7. The data set can be described thus: Antiinflammatory activity against LPS-stimulated mouse RAW264.7 cells assessed as downregulation of PGE2 levels by ELISA. Type of data set: functional, cell-based.
Data set [6] relates to RAW264.7. The data set can be described thus: Antiinflammatory activity against LPS-stimulated mouse RAW264.7 cells assessed as downregulation of iNOS levels by ELISA. It counts as functional, cell-based.
Data set [7] can be described thus: Inhibition of NFkappaB signaling pathway in LPS-stimulated mouse RAW264.7 cells by ELISA. It counts as cell-based.
In data set [8] the test system is RAW264.7. In words: Antiinflammatory activity against LPS-stimulated mouse RAW264.7 cells assessed as TNFalpha levels at 50 umol/L by ELISA (reference value: 183.21 +/- 5.36 pg/mL). Type of data set: functional.
Data set [9] deals with RAW264.7. The data set can be described thus: Antiinflammatory activity against LPS-stimulated mouse RAW264.7 cells assessed as PGE2 levels at 50 umol/L by ELISA (reference value: 33.2 +/- 2.33 pg/mL). It counts as functional.
The subject of data set [10] is RAW264.7. In words: Antiinflammatory activity against LPS-stimulated mouse RAW264.7 cells assessed as iNOS levels at 25 umol/L by ELISA (reference value: 31.63 +/- 3.26 U/mL). Type of data set: functional.
Data set [11] deals with RAW264.7. In words: Antiinflammatory activity against LPS-stimulated mouse RAW264.7 cells assessed as NO levels at 5 umol/L by ELISA (reference value: 0.95 +/- 0.052 umol/mL). Type of data set: functional.
Data set [12] relates to RAW264.7. In words: Antiinflammatory activity against LPS-stimulated mouse RAW264.7 cells assessed as iNOS levels at 50 umol/L by ELISA (reference value: 31.63 +/- 3.26 U/mL). Type of data set: functional.
The test system of data set [13] is RAW264.7. The data set can be described thus: Antiinflammatory activity against LPS-stimulated mouse RAW264.7 cells assessed as PGE2 levels at 25 umol/L by ELISA (reference value: 33.2 +/- 2.33 pg/mL). It counts as functional.
The nature of data set [14]: Inhibition of NFkappaB signaling pathway in LPS-stimulated mouse RAW264.7 cells assessed as protein levels at 50umol/L by ELISA (reference value: 1.23 +/- 0.06 pg/mL). Type of data set: cell-based.
The nature of data set [15]: Inhibition of NFkappaB signaling pathway in LPS-stimulated mouse RAW264.7 cells assessed as protein levels at 5 umol/L by ELISA (reference value: 1.23 +/- 0.06 pg/mL). It counts as cell-based.
Data set [16] has as its system RAW264.7. The data set can be described thus: Antiinflammatory activity against LPS-stimulated mouse RAW264.7 cells assessed as NO levels at 50 umol/L by ELISA (reference value: 0.95 +/- 0.052 umol/mL). It counts as functional.
Data set [17] relates to RAW264.7. The data set can be described thus: Antiinflammatory activity against LPS-stimulated mouse RAW264.7 cells assessed as COX2 levels at 5 umol/L by ELISA (reference value: 159.64 +/- 13.56 pg/mL). It counts as functional.
In data set [18] the test system is RAW264.7. The data set can be described thus: Antiinflammatory activity against LPS-stimulated mouse RAW264.7 cells assessed as TNFalpha levels at 5 umol/L by ELISA (reference value: 183.21 +/- 5.36 pg/mL). Type of data set: functional.
In data set [19] the test system is RAW264.7. The data set can be described thus: Antiinflammatory activity against LPS-stimulated mouse RAW264.7 cells assessed as IL1beta levels at 50 umol/L by ELISA (reference value: 8.70 +/- 0.365 pg/mL). Type of data set: functional.
Data set [20] relates to RAW264.7. The data set can be described thus: Antiinflammatory activity against LPS-stimulated mouse RAW264.7 cells assessed as COX2 levels at 25 umol/L by ELISA (reference value: 159.64 +/- 13.56 pg/mL). Type of data set: functional.
Data set [21] deals with RAW264.7. In words: Antiinflammatory activity against LPS-stimulated mouse RAW264.7 cells assessed as iNOS levels at 5 umol/L by ELISA (reference value: 31.63 +/- 3.26 U/mL). Type of data set: functional.
Data set [22] in a line: Inhibition of NFkappaB signaling pathway in LPS-stimulated mouse RAW264.7 cells assessed as protein levels at 25 umol/L by ELISA (reference value: 1.23 +/- 0.06 pg/mL). Type of data set: cell-based.
Data set [23] deals with RAW264.7. In words: Antiinflammatory activity against LPS-stimulated mouse RAW264.7 cells assessed as IL1beta levels at 5 umol/L by ELISA (reference value: 8.70 +/- 0.365 pg/mL). It counts as functional.
Data set [24] concerns RAW264.7. In words: Antiinflammatory activity against LPS-stimulated mouse RAW264.7 cells assessed as COX2 levels at 50 umol/L by ELISA (reference value: 159.64 +/- 13.56 pg/mL). It counts as functional.
In data set [25] the test system is RAW264.7. In words: Antiinflammatory activity against LPS-stimulated mouse RAW264.7 cells assessed as PGE2 levels at 5 umol/L by ELISA (reference value: 33.2 +/- 2.33 pg/mL). Type of data set: functional.
The subject of data set [26] is RAW264.7. In words: Antiinflammatory activity against LPS-stimulated mouse RAW264.7 cells assessed as IL1beta levels at 25 umol/L by ELISA (reference value: 8.70 +/- 0.365 pg/mL). It counts as functional.
In data set [27] the test system is RAW264.7. In words: Antiinflammatory activity against LPS-stimulated mouse RAW264.7 cells assessed as NO levels at 25 umol/L by ELISA (reference value: 0.95 +/- 0.052 umol/mL). Type of data set: functional.
Data set [28] concerns RAW264.7. The data set can be described thus: Antiinflammatory activity against LPS-stimulated mouse RAW264.7 cells assessed as TNFalpha levels at 25 umol/L by ELISA (reference value: 183.21 +/- 5.36 pg/mL). It counts as functional.

With `COc1c(O)cc2c(c1O)[C@@H]1O[C@H](COC(=O)c3cc(O)c(O)c(O)c3)[C@@H](O)[C@H](O)[C@H]1OC2=O`, the Activity result was “Non-toxic” in data set [1]; “Dose-dependent effect” in data set [2]; “Dose-dependent effect” in data set [3]; “Non-toxic” in [4]; “Dose-dependent effect” in data set [5]; “Dose-dependent effect” in [6]. For the same compound, the inhibition entry in data set [7] was “Dose-dependent effect”.
With `COc1c(O)cc2c(c1O)[C@@H]1O[C@H](CO[C@H]3O[C@H](CO)[C@H](O)[C@H](O)[C@H]3O)[C@@H](O)[C@H](O)[C@H]1OC2=O`, the Activity entry is “Non-toxic” in data set [1]; “Dose-dependent effect” in data set [2]; “Dose-dependent effect” in [3]; “Non-toxic” in [4]; “Dose-dependent effect” in data set [5]; “Dose-dependent effect” in data set [6]. In data set [7], the inhibition result was “Dose-dependent effect”.
Regarding `O=C1O[C@@H]2[C@@H](O)[C@H](O)[C@@H](CO)O[C@H]2c2c1cc(O)c(O)c2O`, the Activity result was “Non-toxic” in data set [1]; “Dose-dependent effect” in data set [2]; “Dose-dependent effect” in data set [3]; “Non-toxic” in data set [4]; “Dose-dependent effect” in data set [5]; “Dose-dependent effect” in data set [6]. In addition, the inhibition result in [7] was “Dose-dependent effect”.
Turning to `COc1c(O)cc2c(c1O)[C@@H]1O[C@H](CO)[C@@H](O)[C@H](O)[C@H]1OC2=O` [BERGENIN], the Activity result was “Non-toxic” in data set [1]; “Dose-dependent effect” in data set [2]; “Dose-dependent effect” in data set [3]; “Non-toxic” in data set [4]; “Dose-dependent effect” in data set [5]; “Dose-dependent effect” in data set [6]. In addition, the inhibition result in data set [7] was “Dose-dependent effect”.
On to `O=C(O)c1cc(O)c(O)c(O)c1` [GALLIC ACID], for which the Activity in [8] is 62.59 pg/mL; in data set [9] it was 30.26 pg/mL; in data set [10] it was 29.76 U/ml; in data set [1] it was “Non-toxic”; in data set [11], 0.88 µmol/mL; in data set [12], 20.57 U/ml. Moreover, the Activity in [13] is 32.74 pg/mL; in data set [14] it was 0.07 pg/mL; in data set [15], 0.76 pg/mL; in data set [4] it was “Non-toxic”; in [16] it was 0.031 µmol/mL; in data set [17], 183.21 pg/mL. The Activity was found to be 103.08 pg/mL in data set [18]; 4.13 pg/mL in data set [19]; 149.16 pg/mL in data set [20]; 35.29 U/ml in data set [21]; 0.14 pg/mL in data set [22]; 4.33 pg/mL in data set [23]. Besides, the Activity in data set [24] worked out at 122.67 pg/mL; in data set [25], 33.06 pg/mL; in data set [26] it was 4.17 pg/mL; in data set [27] it was 0.39 µmol/mL; in data set [28], 80.77 pg/mL.
Regarding `O=c1c(O)c(-c2cc(O)c(O)c(O)c2)oc2cc(O)cc(O)c12` [MYRICETIN], the Activity in data set [8] is 35.44 pg/mL; in data set [9] it was 23.33 pg/mL; in data set [10], 21.38 U/ml; in [1] it was “Non-toxic”; in data set [11], 0.42 µmol/mL; in data set [12], 17.44 U/ml. The Activity in data set [13] was 23.36 pg/mL; in [14], 0.34 pg/mL; in data set [15] it was 0.453 pg/mL; in data set [4], “Non-toxic”; in data set [16] it was 0.12 µmol/mL; in [17], 174.99 pg/mL. In addition, the Activity in data set [18] is 36.23 pg/mL; in data set [19], 0.89 pg/mL; in data set [20], 142.13 pg/mL; in data set [21], 24.26 U/ml; in data set [22], 0.443 pg/mL; in [23] it was 3.44 pg/mL. The Activity in data set [24] came to 118.25 pg/mL; in [25], 27.23 pg/mL; in data set [26], 0.91 pg/mL; in data set [27] it was 0.24 µmol/mL; in [28], 35.59 pg/mL.
For the compound `O=c1c(O)cccc2cc(O)c(O)c(O)c12` [PURPUROGALLIN], the Activity in data set [8] was 42.44 pg/mL; in data set [9], 27.57 pg/mL; in data set [10], 22.15 U/ml; in data set [1], “Non-toxic”; in data set [11], 0.59 µmol/mL; in [12], 21.64 U/ml. The Activity in [13] is 28.11 pg/mL; in data set [14], 0.053 pg/mL; in data set [15] it was 0.32 pg/mL; in [4] it was “Non-toxic”; in [16] it was 0.21 µmol/mL; in data set [17] it was 120.78 pg/mL. The Activity was 52.85 pg/mL in [18]; 2.88 pg/mL in data set [19]; 67.73 pg/mL in data set [20]; 31.37 U/ml in data set [21]; 0.086 pg/mL in data set [22]; 6.7 pg/mL in data set [23]. Further, the Activity came to 67.23 pg/mL in data set [24]; 28.76 pg/mL in data set [25]; 2.95 pg/mL in data set [26]; 0.42 µmol/mL in data set [27]; 44.36 pg/mL in data set [28].
On to `Oc1ccc(/C=C/c2cc(O)cc(O)c2)cc1` [RESVERATROL], for which the Activity in data set [8] is 74.91 pg/mL; in data set [9] it was 28.81 pg/mL; in [10] it was 25.88 U/ml; in data set [1] it was “Non-toxic”; in data set [11], 0.38 µmol/mL; in data set [12] it was 19.26 U/ml. The Activity is 29.15 pg/mL in [13]; 0.15 pg/mL in data set [14]; 0.57 pg/mL in data set [15]; “Non-toxic” in data set [4]; 0.053 µmol/mL in [16]; 121.49 pg/mL in [17]. For the same compound, the Activity in [18] was found to be 109.42 pg/mL; in data set [19] it was 2.98 pg/mL; in data set [20], 104.11 pg/mL; in data set [21] it was 29.22 U/ml; in data set [22] it was 0.25 pg/mL; in data set [23] it was 5.26 pg/mL. Besides, the Activity in [24] is 83.48 pg/mL; in data set [25] it was 31.43 pg/mL; in data set [26], 4.76 pg/mL; in data set [27] it was 0.082 µmol/mL; in data set [28], 96.47 pg/mL.

For the origin of these results see ChEMBL document CHEMBL3822374, “Anti-inflammatory polyphenol constituents derived from Cissus pteroclada Hayata” (Bioorg Med Chem Lett, 2016).
